The term Kd denotes a measure of binding affinity in units of concentration. The term IC50 denotes the point on the concentration scale where inhibition reaches its midpoint. The low end stands for greater potency in that assay, the high end for weaker potency in that assay.

Consider ten compounds from patent EP2123668A1, “Immunogenic polypeptides that mimic the surface polysaccharide O-antigen from serotype 2A shigella flexneri, method for obtaining the same, and their use in vaccine and diagnostic compositions” (INSTITUT PASTEUR, priority 2008, dated 2009).

For test [1], the target named is mAb F22-4. Description: Biacore antibody-ligand binding (equilibrium and kinetic analysis). Further details: species or system murine. (In SPR one partner is held on a chip, and binding of the other changes the refractive index at the surface.)
Test [2] deals with mAb F22-4. Description: StopFlow antibody-ligand binding. Also on record: species or system murine.
Test [3] concerns LPS/F22-4. The conditions noted are these: cited from earlier work.
A further test relates to F22-4 antibody. The experiment in a line: ITC microcalorimetry. The format is binding, murine. An excerpt: ITC experiments with F22-4 antibody and several chemically synthesized oligosaccharidic fragments of O-Ag 2a lead to two major results.
Test [4] has as its target LPS/F22-4. Description: ELISA inhibition of LPS/F22-4 binding. Further details: species or system murine. In general terms: In an ELISA, binding on a coated surface is turned into a signal by an enzyme label.
Test [5] concerns S. flexneri 2a mAb (F22-4). Description: Reactivity of selected or conjugated peptides with the F22-4 mAb. The conditions noted are these: conjugated peptides, coupled to BSA. The format is binding, murine. An excerpt:
Two protective mAbs directed against S. flexneri LPS 2a (IgG C1-7 and IgG F22-4) were used for mimotope selection using the two libraries displaying 12 amino acid-long inserts.
The peptides have been synthesized with a flanking region AEGEF at the N-terminal and DPAKC at the C-terminal. The peptides have been conjugated to maleimide-activated bovine serum albumin (BSA) and to maleimide-activated keyhole limpet hemocyanine (KLH) using a kit from Pierce. The seven different sequences have been selected by Partner 4, all showing good reactivity with the S. flexneri 2a mAb (F22-4) and being inhibited by the LPS. Five of the sequences, B24, B1, C8, C26 and C17 (shown below in bold) have been chosen for further analyzes. The reason that the peptides C22 and C3 have been omitted are that they contain cysteine and the conjugation procedure that we exploited used cysteine for coupling to the protein. The conjugated peptides have been tested for reactivity with the F22-4 mAb and were positive when coupled to BSA. […] Sequences of peptides selected using the S. flexneri 2a specific mAb F22-4

Test [6] has as its target mAb F22-4. Description: Biacore antibody-ligand binding (equilibrium and kinetic analysis). The conditions noted are these: equilibrium analysis; read-out: Biacore Eq KD. Further details: species or system murine.
The target of test [7] is LPS/F22-4. The experiment in a line: ELISA inhibition of LPS/F22-4 binding. Further details: species or system murine. The source holds these as a separate data set.
[8] abbreviates: equilibrium analysis, read-out: Biacore Eq KD.
Setting [9] is: kinetic analysis, read-out: Biacore Cin KD.
Setting [10] is: PBS buffer at 25°C, read-out: KD.
Setting [11] is: Table 6 recapitulation, read-out: microcal KD.

Like-named read-outs stand apart in the source and are kept apart here. No end group written: not given here. Bounds are passed on as bounds.

For the compound `COC1OC(C)C(OC2OC(CO)C(O)C(O)C2O)C(OC2OC(C)C(O)C(O)C2OC2OC(C)C(O)C(O)C2OC2OC(CO)C(O)C(OC3OC(C)C(OC4OC(CO)C(O)C(O)C4O)C(OC4OC(C)C(O)C(O)C4OC4OC(C)C(O)C(O)C4OC4OC(CO)C(O)C(O)C4NC(C)=O)C3O)C2NC(C)=O)C1O` (stereo not drawn) [DAB(E)CDAB(E)C], the Kd at mAb F22-4 [1] (setting [8]) worked out at 5.32 µM; at mAb F22-4 [1] (setting [9]), 4.47 µM; on mAb F22-4 [2], 5 µM; at F22-4 antibody (setting [10]), 5.4 µM; on F22-4 antibody (setting [11]), 5.4 µM. In the test with mAb F22-4 [1] (kinetic analysis), the “Biacore Cin koff(s-1)” value was 0,123±0,04 s-1. Further, the “StopFlow koff(s-1)” value in the test on mAb F22-4 [2] is reported as 0,29 s-1. Further, the “StopFlow kon(M-1.s-1)” value in the test on mAb F22-4 [2] is on record as 5,90E+04 M-1.s-1. The “IC50 compared with B(E)CDA'B'(E')C'” value in the test on LPS/F22-4 [3] (reference (12)) is “only an order of magnitude higher”. In the test with F22-4 antibody (PBS buffer at 25°C), the “ΔH (Kcal/mol)” value is -19,5±01,2 Kcal/mol. The “ΔS (cal/mol/K)” value with F22-4 antibody (PBS buffer at 25°C) is recorded as -41,2 cal/mol/K. Besides, on LPS/F22-4 [4], the IC50 is 5 ± 1.4 µM.
With `CO[C@@H]1O[C@@H](C)[C@H](O)[C@@H](O)[C@H]1O[C@@H]1O[C@H](CO)[C@@H](O)[C@H](O[C@@H]2O[C@@H](C)[C@H](O[C@H]3O[C@H](CO)[C@@H](O)[C@H](O)[C@H]3O)[C@@H](O[C@@H]3O[C@@H](C)[C@H](O)[C@@H](O)[C@H]3O)[C@H]2O)[C@H]1NC(C)=O` [B(E)CDA], on mAb F22-4 [1] (setting [8]), the Kd amounted to 4.1 µM. Moreover, at mAb F22-4 [2], the dissociation constant (Kd) was 3.5 µM, the “StopFlow koff(s-1)” value was 2,4 s-1 and the “StopFlow kon(M-1.s-1)” value was 7,00E+05 M-1.s-1. In the test with F22-4 antibody (PBS buffer at 25°C), the “ΔH (Kcal/mol)” value is -14,2±0,1 Kcal/mol and the “ΔS (cal/mol/K)” value is listed as -22,7 cal/mol/K. Also, the Kd at F22-4 antibody (setting [10]) was 3.35 µM. Further, the Kd on F22-4 antibody (setting [11]) amounted to 3.35 µM. This compound showed an IC50 on LPS/F22-4 [4] of 2.5 µM.
Take `CC(=O)N[C@@H]1[C@@H](O[C@@H]2O[C@@H](C)[C@H](O[C@H]3O[C@H](CO)[C@@H](O)[C@H](O)[C@H]3O)[C@@H](O[C@@H]3O[C@@H](C)[C@H](O)[C@@H](O)[C@H]3O[C@@H]3O[C@@H](C)[C@H](O)[C@@H](O)[C@H]3O[C@@H]3O[C@H](CO)[C@@H](O)[C@H](O[C@@H]4O[C@@H](C)[C@H](O[C@H]5O[C@H](CO)[C@@H](O)[C@H](O)[C@H]5O)[C@@H](O[C@@H]5O[C@@H](C)[C@H](O)[C@@H](O)[C@H]5O[C@@H]5O[C@@H](C)[C@H](O)[C@@H](O)[C@H]5O)[C@H]4O)[C@H]3NC(C)=O)[C@H]2O)[C@H](O)[C@@H](CO)O[C@H]1O` [[AB(E)CD]2]: the Kd at mAb F22-4 [1] (setting [8]) was 1 µM; on mAb F22-4 [1] (setting [9]), 1.09 µM; at mAb F22-4 [2] it was 1.5 µM; at F22-4 antibody (setting [10]), 1.04 µM; on F22-4 antibody (setting [11]), 1.04 µM. Also, the “Biacore Cin koff(s-1)” value with mAb F22-4 [1] (kinetic analysis) is 0,074±0,004 s-1. In addition, in the test with mAb F22-4 [2], the “StopFlow koff(s-1)” value is 0,13 s-1. Besides, the “StopFlow kon(M-1.s-1)” value with mAb F22-4 [2] is on record as 8,30E+04 M-1.s-1. Further, the “ΔH (Kcal/mol)” value in the test with F22-4 antibody (PBS buffer at 25°C) is recorded as -17,7±0,7 Kcal/mol. Further, the “ΔS (cal/mol/K)” value in the test with F22-4 antibody (PBS buffer at 25°C) was -31,7 cal/mol/K. At LPS/F22-4 [4], this compound yielded an IC50 of 0.7 µM.
On to `CO[C@@H]1O[C@@H](C)[C@H](O[C@H]2O[C@H](CO)[C@@H](O)[C@H](O)[C@H]2O)[C@@H](O[C@@H]2O[C@@H](C)[C@H](O)[C@@H](O)[C@H]2O[C@@H]2O[C@@H](C)[C@H](O)[C@@H](O)[C@H]2O[C@@H]2O[C@H](CO)[C@@H](O)[C@H](O)[C@H]2NC(C)=O)[C@H]1O` [DAB(E)C], for which the Kd on mAb F22-4 [2] is greater than 1100 µM. Also, the half-maximal inhibitory concentration (IC50) at LPS/F22-4 [4] was greater than 1000 µM.
As for “AEGEFPHGEIFHMMRRPDPAKC-COOH (AEGEFPHGEIFHMMRRPDPAKC-OH) [Peptide C17]”, in test [5], the “reactivity with the F22-4 mAb” value is “poor reactivity”.
For `CC(=O)N[C@@H]1[C@@H](O[C@@H]2O[C@@H](C)[C@H](O[C@H]3O[C@H](CO)[C@@H](O)[C@H](O)[C@H]3O)[C@@H](O[C@@H]3O[C@@H](C)[C@H](O)[C@@H](O)[C@H]3O[C@@H]3O[C@@H](C)[C@H](O)[C@@H](O)[C@H]3O[C@@H]3O[C@H](CO)[C@@H](O)[C@H](O[C@@H]4O[C@@H](C)[C@H](O[C@H]5O[C@H](CO)[C@@H](O)[C@H](O)[C@H]5O)[C@@H](O[C@@H]5O[C@@H](C)[C@H](O)[C@@H](O)[C@H]5O[C@@H]5O[C@@H](C)[C@H](O)[C@@H](O)[C@H]5O[C@@H]5O[C@H](CO)[C@@H](O)[C@H](O[C@@H]6O[C@@H](C)[C@H](O[C@H]7O[C@H](CO)[C@@H](O)[C@H](O)[C@H]7O)[C@@H](O[C@@H]7O[C@@H](C)[C@H](O)[C@@H](O)[C@H]7O[C@@H]7O[C@@H](C)[C@H](O)[C@@H](O)[C@H]7O)[C@H]6O)[C@H]5NC(C)=O)[C@H]4O)[C@H]3NC(C)=O)[C@H]2O)[C@H](O)[C@@H](CO)O[C@H]1O` [[AB(E)CD]3], the Kd on mAb F22-4 [1] (setting [8]) worked out at 0.56 µM; on mAb F22-4 [1] (setting [9]), 1.56 µM; on mAb F22-4 [2], 0.69 µM; on F22-4 antibody (setting [10]) it was 1.03 µM; on F22-4 antibody (setting [11]), 1.03 µM. For the same compound, in the test with mAb F22-4 [1] (kinetic analysis), the “Biacore Cin koff(s-1)” value was 0,075+0,005^(H) s-1. Moreover, the “StopFlow koff(s-1)” value in the test with mAb F22-4 [2] is given as 0,11 s-1. In the test with mAb F22-4 [2], the “StopFlow kon(M-1.s-1)” value is 1,70E+05 M-1.s-1. Further, the “ΔH (Kcal/mol)” value in the test on F22-4 antibody (PBS buffer at 25°C) is listed as -17,3±0,8 Kcal/mol. Also, the “ΔS (cal/mol/K)” value with F22-4 antibody (PBS buffer at 25°C) is listed as -30,6 cal/mol/K. The compound further displayed an IC50 on LPS/F22-4 [4] of 0.32 µM.
In the case of `COC1OC(C)C(O)C(O)C1OC1OC(CO)C(O)C(OC2OC(C)C(OC3OC(CO)C(O)C(O)C3O)C(O)C2O)C1NC(C)=O` (stereo not drawn) [ECDA], in the test with F22-4 antibody (PBS buffer at 25°C), the “ΔH (Kcal/mol)” value is -11,3±0,1 Kcal/mol and the “ΔS (cal/mol/K)” value was -19.2 cal/mol/K. Moreover, the Kd at F22-4 antibody (setting [10]) amounted to 89 ± 1 µM.
In the case of YLEDWIKYNNQK [Peptide B1], the Kd at mAb F22-4 [6] is 2.98 µM. The compound further displayed an IC50 at LPS/F22-4 [7] of roughly 3 µM. Moreover, in the test with F22-4 antibody (PBS buffer at 25°C), the “ΔH (Kcal/mol)” value is given as -24,0 ±0,1 Kcal/mol and the “ΔS (cal/mol/K)” value is reported as -54,6 cal/mol/K. The Kd at F22-4 antibody (setting [11]) is 2.49 µM.
Regarding `COC1OC(C)C(OC2OC(CO)C(O)C(O)C2O)C(OC2OC(C)C(O)C(O)C2OC2OC(C)C(O)C(O)C2OC2OC(CO)C(O)C(OC3OC(C)C(OC4OC(CO)C(O)C(O)C4O)C(OC4OC(C)C(O)C(O)C4O)C3O)C2NC(C)=O)C1O` (stereo not drawn) [B(E)CDAB(E)C], the Kd on mAb F22-4 [1] (setting [8]) came to 0.61 µM; on mAb F22-4 [1] (setting [9]), 0.75 µM; at mAb F22-4 [2], 0.16 µM; at F22-4 antibody (setting [10]), 0.47 µM; on F22-4 antibody (setting [11]) it was 0.47 µM. Moreover, the “Biacore Cin koff(s-1)” value in the test with mAb F22-4 [1] (kinetic analysis) is given as 0,068±0,03 s-1. Moreover, in the test with mAb F22-4 [2], the “StopFlow koff(s-1)” value is listed as 0,05 s-1. Also, the “StopFlow kon(M-1.s-1)” value with mAb F22-4 [2] is 3,10E+05 M-1.s-1. Moreover, the “effectiveness in inhibition compared with ECD” value in the test with LPS/F22-4 [3] (LPS/F22-4 inhibition studies (12), (13)) is “about three orders of magnitude more effective”. Further, the “ΔH (Kcal/mol)” value in the test on F22-4 antibody (PBS buffer at 25°C) is -19,5±0,2 Kcal/mol. Besides, the “ΔS (cal/mol/K)” value in the test on F22-4 antibody (PBS buffer at 25°C) was -36,6 cal/mol/K. Also, on LPS/F22-4 [4], the IC50 is 0.22 µM.
As for `CO[C@@H]1O[C@@H](C)[C@H](O)[C@@H](O)[C@H]1O[C@@H]1O[C@@H](C)[C@H](O)[C@@H](O)[C@H]1O[C@@H]1O[C@H](CO)[C@@H](O)[C@H](O[C@@H]2O[C@@H](C)[C@H](O[C@H]3O[C@H](CO)[C@@H](O)[C@H](O)[C@H]3O)[C@@H](O)[C@H]2O)[C@H]1NC(C)=O` [ECDAB], the Kd stood at 300 µM on mAb F22-4 [2], 230 ± 2 µM on F22-4 antibody (setting [10]) and 230 ± 2 µM at F22-4 antibody (setting [11]). Moreover, the “ΔH (Kcal/mol)” value with F22-4 antibody (PBS buffer at 25°C) is given as -10,8±0,1 Kcal/mol. In the test with F22-4 antibody (PBS buffer at 25°C), the “ΔS (cal/mol/K)” value is -19,6 cal/mol/K. At LPS/F22-4 [4], this compound returned an IC50 of 354 ± 40 µM.
